Reference: patent US11554113B2, “Methods for treating disorders or diseases associated with hyperlipidemia and hypercholesterolemia while minimizing side-effects” (The Trustees of the University of Pennsylvania, priority 2004, dated 2023)
Like-named read-outs stand apart in the source and are kept apart here.

Assays:
LDL-C = conditions: cited from earlier work
[1] = 25 mg per day for 4 weeks, primary hypercholesterolemia, some patients; cited from earlier work
[2] = test system: low density lipoprotein cholesterol (LDL-C); conditions: cited from earlier work
[3] = target: microsomal triglyceride transfer protein (MTP) (Homo sapiens, UniProt P55157); conditions: for mean percent change in apoB / mean percent change in non-HDL cholesterol / mean percent change in total cholesterol: 6 hoFH subjects
Method: This theory was applied in designing a study investigating the safety, tolerability and efficacy of BMS-201038 in patients with homozygous familial hypercholesterolemia (hoFH).
Subjects received once daily dosing of 4 doses of BMS-201038 (0.03, 0.1, 0.3 and 1.0 mg/kg) for 4 weeks at each dose. We chose an initial low dose (0.03 mg/kg) that while not expecting to be efficacious, would be a dose that would be expected to be safe and well tolerated (˜2.1 mg in the 70 kg person) The remaining three doses were chosen by calculating ½ log units of the previous dose.

cholesterol levels = conditions: cited from earlier work
[4] = dogs, six-month toxicity study, doses 0-10 mg/kg; cited from earlier work
[5] = rats, cited from earlier work
apoAI secretion = conditions: cell culture studies; read-out: IC50 for inhibition of apoAI secretion; cited from earlier work
apoB secretion = conditions: cell culture studies; read-out: IC50 for inhibition of apoB secretion; cited from earlier work
cholesterol = conditions: in vivo; cited from earlier work
[6] = 0.3 mg/kg once daily for 4 weeks (second highest dose)
[7] = 1.0 mg/kg once daily for 4 weeks (highest dose)
[8] = dose of 10 mg/kg, rabbits that lack a functional LDL receptor

microsomal triglyceride transfer protein (MTP), sequence (P55157 19-894): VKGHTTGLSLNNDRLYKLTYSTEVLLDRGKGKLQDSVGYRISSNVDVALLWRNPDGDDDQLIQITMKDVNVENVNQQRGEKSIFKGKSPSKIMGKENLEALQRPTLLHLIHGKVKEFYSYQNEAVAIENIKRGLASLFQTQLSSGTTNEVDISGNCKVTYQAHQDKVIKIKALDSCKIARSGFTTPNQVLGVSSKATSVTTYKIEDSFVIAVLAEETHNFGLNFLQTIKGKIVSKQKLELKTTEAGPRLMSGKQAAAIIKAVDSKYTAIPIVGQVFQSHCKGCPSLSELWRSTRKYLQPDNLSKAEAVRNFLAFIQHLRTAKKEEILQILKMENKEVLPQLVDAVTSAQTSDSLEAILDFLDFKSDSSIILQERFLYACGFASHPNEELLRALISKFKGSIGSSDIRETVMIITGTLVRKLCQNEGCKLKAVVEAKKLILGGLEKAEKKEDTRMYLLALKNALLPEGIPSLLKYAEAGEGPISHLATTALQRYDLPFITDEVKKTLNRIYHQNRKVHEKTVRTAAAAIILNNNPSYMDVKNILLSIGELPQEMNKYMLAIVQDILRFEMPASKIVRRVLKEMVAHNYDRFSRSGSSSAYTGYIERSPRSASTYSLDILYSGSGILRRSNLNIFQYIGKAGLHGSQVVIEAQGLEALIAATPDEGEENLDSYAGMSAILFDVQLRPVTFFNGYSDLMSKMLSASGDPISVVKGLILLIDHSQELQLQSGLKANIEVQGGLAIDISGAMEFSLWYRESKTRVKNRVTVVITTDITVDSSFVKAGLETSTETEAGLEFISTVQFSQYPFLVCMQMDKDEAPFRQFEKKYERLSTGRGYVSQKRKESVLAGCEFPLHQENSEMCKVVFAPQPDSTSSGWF
microsomal triglyceride transfer protein (MTP), sequence (P07237 18-508 partner): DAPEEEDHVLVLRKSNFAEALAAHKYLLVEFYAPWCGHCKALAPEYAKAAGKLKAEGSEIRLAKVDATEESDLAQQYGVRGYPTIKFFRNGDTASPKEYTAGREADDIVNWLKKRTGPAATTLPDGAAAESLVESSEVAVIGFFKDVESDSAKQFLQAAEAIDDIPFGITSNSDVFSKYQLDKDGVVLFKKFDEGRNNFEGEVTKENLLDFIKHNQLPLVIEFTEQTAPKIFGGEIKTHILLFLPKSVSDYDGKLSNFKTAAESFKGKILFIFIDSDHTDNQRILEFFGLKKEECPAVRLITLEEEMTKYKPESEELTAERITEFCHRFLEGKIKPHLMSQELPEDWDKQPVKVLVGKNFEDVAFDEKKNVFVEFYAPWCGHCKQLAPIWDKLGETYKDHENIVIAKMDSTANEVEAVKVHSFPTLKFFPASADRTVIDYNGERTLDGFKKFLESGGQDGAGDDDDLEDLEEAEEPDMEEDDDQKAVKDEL

For `CC(C)c1c(C(=O)Nc2ccccc2)c(-c2ccccc2)c(-c2ccc(F)cc2)n1CC[C@@H](O)C[C@@H](O)CC(=O)O` [atorvastatin], the “mean LDL-C reduction” value (LDL-C; genotype-confirmed hoFH, maximal dose of statins 80 mg/day) is given as “about 5.5%”.
In the case of `O=C(NC1CCN(CCCCC2(C(=O)NCC(F)(F)F)c3ccccc3-c3ccccc32)CC1)c1ccccc1-c1ccc(C(F)(F)F)cc1` [BMS-201038, N-(2,2,2-Trifluorethyl)-9-[4-[4-[[[4′-(trifluoromethyl) [1,1′biphenyl]-2-Y1]carbonyl]amino]-1-piperidinyl]butyl]9H-fluorene-9-carboxamide, methanesulfonate], the “gastrointestinal (GI) symptoms (steatorrhea, abdominal cramping and distention)” value [1] is listed as “clinically significant”, the “reduction of low density lipoprotein cholesterol (LDL-C)” value ([2]; healthy volunteers with hypercholesterolemia) is listed as “up to 65%” and the “doses at which gastrointestinal side effects/steatorrhea, elevation of serum transaminases and hepatic fat accumulation were primarily observed” value ([2]; human clinical development) is listed as at least 25 mg/day. For the same compound, the “mean percent change in apoB” value [3, 6] was −15±16%, the “mean percent change in non-HDL cholesterol” value [3, 6] was −31±9% and the “mean percent change in total cholesterol” value [3, 6] was −30±9%. The “mean percent change in apoB” value [3, 7] was −55±13%, the “mean percent change in non-HDL cholesterol” value [3, 7] was −60±8.8% and the “mean percent change in total cholesterol” value [3, 7] was −58±8.5%. For the same compound, the “increase in hepatic fat by NMRS from baseline to 4 weeks on 1 mg/kg” value ([3]; human, in vivo, 4 weeks) was 3-37%, the LDL cholesterol reduction (cholesterol levels; 10 mg/kg, animal study by Wetterau and colleagues) was “greater than 80%” and the cholesterol levels (cholesterol levels; [8]) was “essentially normalized”. The “plasma AST or ALT” value (cholesterol levels; [8]) was “no alteration”, the “ED50 value for lowering cholesterol” value (cholesterol levels; rabbits that lack a functional LDL receptor) was 1.9 mg/kg and the “subacute inflammation and single-cell necrosis of hepatocytes and histiocytosis (phospholipidosis) in the lungs” value [4] was “not in dogs”. The “doses associated with subacute inflammation and single-cell necrosis of hepatocytes and histiocytosis (phospholipidosis) in the lungs” value ([5]; six-month toxicity study, doses 0-20 mg/kg) was at least 0.2 mg/kg, the “hepatic accumulation of lipids at the end of a 1-month washout period” value [5] was “reversed” and the IC50 (apoAI secretion) was 6.5 µM. For the same compound, the IC50 (apoB secretion) was 0.0008 µM.
In the case of `O=C1[C@H](CC[C@H](O)c2ccc(F)cc2)[C@@H](c2ccc(O)cc2)N1c1ccc(F)cc1` [ezetimibe], the “total reduction of LDL-C levels” value (LDL-C; ezetimibe 10 mg/day added to atorvastatin or simvastatin 80 mg/day, hoFH) is listed as 27% and the “reduction of LDL cholesterol” value (cholesterol) is listed as “about 18%”.
